Test results from paper PMC12431657, “Discovery and mechanistic insights of dibenzoylmethane as a broad spectrum inhibitor of coronavirus” (PLOS Pathogens, 2025).
Several values for one entry are separate records, joined by “and”; a condition that tells them apart may be missing. Equal entries are not always repeated.

Assays:
Type in all cases: cell-based
[1] = system: SARS-CoV-2 variant Delta (B.1.617.2); experiment: microbe, parasite or virus in culture; conditions: for EC50: Severe acute respiratory syndrome coronavirus 2, 24 h, read-out: EC50 B.1.617.2 (293T-AT)
[2] = system: SARS-CoV-2 variant Omicron (BA.5); experiment: microbe, parasite or virus in culture; conditions: for EC50: Severe acute respiratory syndrome coronavirus 2, 24 h, read-out: EC50 BA.5 (293T-AT)
[3] = system: SARS-CoV-2 variant Omicron (BA.5)

| Structure (SMILES) | EC50 [1] | BA.5, HEK293T-AT: inhibition at the concentration (Fig2B) [2] | inhibitory effect against SARS-CoV-2 BA.5 in HEK293T-AT cells [2] | EC50 [2] | inhibitory effect against SARS-CoV-2 BA.5 in Vero E6 cells [3] | B.1.617.2, HEK293T-AT: inhibition at the concentration (Fig2B) [1] |
| --- | --- | --- | --- | --- | --- | --- |
| O=C(CC(=O)c1ccccc1)c1ccccc1 [DBM, dibenzoylmethane] | 20800 nM | 97.4 | demonstrated efficacy | 6630 nM | but not in Vero E6 cells | – |
| Cc1c([C@H](C)[C@@H]2NC[C@@H](C)C[C@H]2O)ccc2c1C[C@H]1[C@H]2CC=C2C[C@@H](O)CC[C@@]21C [Veratramine, veratramine] | < 80 nM | 81.3 | – | < 80 nM | – | 99.1 and 99.7 and 99.9 |
| CCC(=O)O[C@H]1[C@H](O[C@@H]2[C@@H](C)[C@H](O[C@H]3C[C@@](C)(OC)[C@@H](O)[C@H](C)O3)[C@@H](C)C(=O)O[C@H](CC)[C@@](C)(O)[C@H](O)[C@@H](C)C(=O)[C@H](C)C[C@@]2(C)O)O[C@H](C)C[C@@H]1N(C)C [Erythromycin estolate, erythromycin estolate, reference compound] | < 80 nM | – | – | < 80 nM | – | 98.9 and 99.6 and 99.2 |
| C/C=C(/C)C(=O)OC(C)(C)[C@@H]1Cc2c(ccc3ccc(=O)oc23)O1 [Columbianadin, columbianadin] | < 80 nM | – | – | < 80 nM | – | 99.1 and 99.3 |
| CC1=C[C@]23C(=O)[C@@H](C=C(COC(=O)c4ccccc4)[C@@H](O)[C@]2(O)[C@H]1OC(=O)c1ccccc1)[C@H]1[C@@H](C[C@H]3C)C1(C)C [Ingenol 3,20-dibenzoate, ingenol 3,20-dibenzoate] | < 80 nM | – | – | < 80 nM | – | 81.2 |
